{"source": "paper PMC4627231", "about": "“Targeting the sugar metabolism of tumors with a first-in-class 6-phosphofructo-2-kinase (PFKFB4) inhibitor” (Oncotarget, 2015)", "key": {"[1]": {"tested_on": "intracellular F2,6BP in H460 cells", "assay": "F2,6BP measurement in H460 cells", "assay_type": "cell-based, human", "conditions": "for [F2,6BP]: 24 hours (DMSO 6.1 ±0.2)", "experimental": "Cells or tissues were prepared as previously described and F2,6BP content measured using a coupled enzyme reaction following the method of Van Schaftingen et al and normalized to total cellular protein measured by the bicinchoninic acid assay (Thermo Scientific). All data are expressed as the mean ± SD of three experiments. Statistical significance was assessed by the two-sample t test (independent variable)."}, "H460 cells": {"tested_on": "H460 cells", "assay": "Cell cycle analysis by flow cytometry (PI)", "assay_type": "cell-based, human", "conditions": "10μM 5MPN", "experimental": "To measure apoptosis, cells were stained with annexin V and propidium iodide and examined as previously described. For cell cycle experiments, cells were detached, washed with cold PBS and fixed in 70% ethanol at 4°C for 30 minutes. The cells then were pelleted by centrifugation, resuspended in PBS containing PI and RNase A, incubated at 37°C in the dark for 30 minutes and analyzed by flow cytometry (BD FACSCalibur). Data were analyzed using FlowJo software (TREE STAR Inc.). Results were calculated as the mean ± SD of three experiments and data shown are representative of three independent experiments."}, "[2]": {"tested_on": "Ki67-positive cells in LLC xenografts", "assay": "Ki67 immunohistochemistry of LLC tumors", "assay_type": "in vivo, C57BL/6 mice", "conditions": "oral administration", "experimental": "Five μm mounted sections of formalin-fixed, paraffin-embedded LLC tumor tissues were processed as previously described and then incubated with anti-Ki-67 primary antibody (Abcam) overnight, followed by HRP-linked goat anti-rabbit secondary antibody (1:300, Pierce). Sections were developed with 3,3′-diaminobenzidine tetrahydrochloride and counterstained as previously described. Slides were scanned using a ScanScope XT Digital Slide Scanner (Aperio), data analyzed with the positive pixel count algorithm (ImageScope, Aperio) and a minimum of 5 fields (20x magnification) were quantified for each tumor section. The data are depicted as % positive pixels/total pixels ± SD."}, "[3]": {"tested_on": "normal human bronchial epithelial (NHBE) cells", "assay": "Viable cell count (trypan blue exclusion)", "assay_type": "cell-based", "conditions": "live cells counted at 48 hours", "experimental": "Viability was determined using trypan blue exclusion as previously described. Cells were incubated in 20% trypan blue (Sigma) for 5 minutes. Cells excluding trypan blue were counted using a standard hemocytometer (Hausser Scientific) to determine total numbers of viable cells. Data are expressed as mean ± SD of three experiments."}, "glycolysis in H460 cells": {"tested_on": "glycolysis in H460 cells", "assay": "Glycolysis assay (3H2O from 5-[3H]glucose)", "assay_type": "cell-based, human", "conditions": "10 μM, 6-72 hours", "experimental": "Cells growing in 6-well plates were incubated in 500 μl of complete medium containing 1 μCi of 5-[^3H]glucose per well for 60 min in 5% CO2 at 37°C. Media was collected, ^3H2O formed via glycolysis from the 5-[^3H]glucose measured and counts normalized as previously described. All data are expressed as the mean ± SD of three experiments. Statistical significance was assessed by the two-sample t test (independent variable)."}, "[4]": {"tested_on": "2-[18F]-fluoro-2-deoxyglucose uptake by LLC xenografts", "assay": "FDG uptake by micro-PET in LLC tumors", "assay_type": "in vivo, C57BL/6 mice", "conditions": "120 mg/kg by gavage, once, one hour before imaging", "experimental": "At the end of the experiment, one hour after a single dose of DMSO or 5MPN, animals were euthanized, tumors removed and sections fixed in 10% formaldehyde for immunohistochemistry or snap-frozen in liquid nitrogen for analyses. Subsets of tumor-bearing mice (n=3) were administered a single dose of either DMSO or 5MPN one hour prior to imaging then injected i.p. with 2-[^18F]-fluoro-2-deoxyglucose (FDG, 150μCi, 100 μl) and, 45 min after FDG injection, were anesthetized with 2% isoflurane in oxygen and transferred to a R-4 Rodent Scanner (CTI Concorde Microsystems) micro-positron emission tomograph to capture images as previously described. Regions of interest in the tumors and cerebellum were quantified in quadruplicate and expressed as the mean ± SD of the ratio of tumor:cerebellar FDG uptake. Animal experiments were approved by the University of Louisville Institutional Animal Care and Use Committee."}}, "data": [{"smiles": "COc1cccc2c(NCCCCCO[N+](=O)[O-])ccnc12", "note": "[Compound 5MPN, 5-(n-(8-methoxy-4-quinolyl)amino)pentyl nitrate]", "values": [{"measurement": "[F2,6BP]", "setting": "[1]; 5μM 5MPN", "value": "2.3 ±0.05", "unit": "pmol/mg protein"}, {"measurement": "[F2,6BP]", "setting": "[1]; 10μM 5MPN", "value": "1.52 ±0.2", "unit": "pmol/mg protein"}, {"measurement": "[F2,6BP]", "setting": "[1]; 20 μM 5MPN", "value": "0.75±0.09", "unit": "pmol/mg protein"}, {"measurement": "[F2,6BP]", "setting": "[1]; 30 μM 5MPN", "value": "0.43 ±0.1", "unit": "pmol/mg protein"}, {"measurement": "effect of PFKFB4 over-expression on the reduction in F2,6BP caused by 5MPN", "setting": "[1]; Vec vs FB4, 10 μM 5MPN, 24 hours", "value": "reversed"}, {"measurement": "cell cycle arrest", "setting": "H460 cells", "value": "marked G1 arrest"}, {"measurement": "Ki67-positive cells", "setting": "[2]", "value": "reduction"}, {"measurement": "effect on cell growth", "setting": "[3]", "value": "virtually unaffected"}, {"measurement": "effect on glycolysis", "setting": "glycolysis in H460 cells", "value": "reduced"}, {"measurement": "2-[18F]-fluoro-2-deoxyglucose uptake (positron emission tomography)", "setting": "[4]", "value": "marked reduction"}]}]}
